The values that follow come from patent publication US11639350B2, “Heteroaryldihydropyrimidine derivatives and methods of treating hepatitis B infections” (Janssen Pharmaceutica NV, priority 2018, dated 2023).

The test system of one data set is HBV. The data set is described as follows: HBV inhibitory activity: HBV DNA in the culture medium of HepG2.2.15 cells by q-PCR. It counts as cell-based. The settings on record: Hepatitis B virus, HepG2.2.15, 144 h, HepG2.2.15 cells, 6 days of compound treatment, HBV DNA in culture medium by q-PCR, highest concentration 10 μM; read-out: EC50. On the procedure:
(§1) HBV replication inhibition by the compounds of this invention as well as cytotoxicity determination was determined in cells infected or transfected with HBV, or cells with stably integrated HBV, such as HepG2.2.15 cells (Sells et al. 1987). The method used herein is as follows.
(§2) The HepG2.2.15 cells were seeded into 96-well plate in 2% FBS (Fetal bovine serum) culture medium at the density of 40,000 cells/well and 5,000 cells/well for HBV inhibitory activity and cytotoxicity determination, respectively. After seeding, the cell plates were incubated at 37° C., 5% CO2 overnight. The next day, medium containing compounds were added to treat the cells for 6 days with medium refreshed once in the middle of the treatment. Eight dose points with 3 folds dilution of each compound were adopted and the highest concentration of the compounds was 10 μM and 100 μM for HBV inhibitory activity and cytotoxicity determination, respectively.
The HBV DAN change in the cell culture medium induced by the compounds was measured by q-PCR (quantitative polymerase chain reaction) method. The HBV DNA in the culture medium was extracted using QIAamp 96 DNA Blood Kit according to the manual and then quantified by q-PCR using the primers and probe in the table below: […]
(§3) EC50 and CC50 values are calculated by the GraphPad Prism software and are averages where multiple measurements were made. EC50 values for the other exemplified compounds were either not measured or higher than 1 μM.

A short description of data set [1]: Cytotoxicity determination in HepG2.2.15 cells (CCK-8). The settings on record: human, 6 days of compound treatment, CCK-8, highest concentration 100 μM. It counts as cell-based. The procedure: as §1, §2
After 6 days of compounds treatment, 20 μl CCK-8 (Cell Counting Kit-8 (Tianjin Biolite company)) reagents were added to each well of cytotoxicity assay plates, the plate was incubated at 37° C., 5% CO2 for 2.5 hours and the absorbance at 450 nm wavelength was measured, at the same time the absorbance at 630 nm wavelength was read as reference.
as §3

As to `COC(=O)C1=C([C@H]2CC[C@H](C(=O)O)CC2)NC(c2nccs2)=NC1c1ccc(F)c(F)c1Cl` (relative stereo) [Compound 289A, (trans)-4-(6-(2-chloro-3,4-difluorophenyl)-5-(methoxycarbonyl)-2-(thiazol-2-yl)-3,6-dihydropyrimidin-4-yl)cyclohexanecarboxylic Acid], the EC50 with HBV was 0.015 µM. In addition, half-maximal cytotoxicity in data set [1] (CC50 at 6 days) was put at 24.2 µM.

`CCOC(=O)C1=C([C@@H]2CCC[C@H](C(=O)O)CC2)NC(c2nccs2)=NC1c1ccc(F)c(F)c1Cl` (relative stereo) [Compound 302C, (cis)-4-(−6-(2-Chloro-3,4-difluorophenyl)-5-(ethoxycarbonyl)-2-(thiazol-2-yl)-3,6-dihydropyrimidin-4-yl)cycloheptanecarboxylic Acid]: in the data set with HBV, the 50% effective concentration (EC50) was 0.05 µM. In data set [1], this compound registered a 50% cytotoxic concentration (CC50) at 6 days of 10.2 µM.

Consider `COC(=O)C1=C(C2CCN(S(=O)(=O)[C@H]3CC[C@H](C(=O)O)C3)CC2)NC(c2nccs2)=NC1c1ccc(F)cc1Cl` (relative stereo) [Compound 311A, (trans)-3-((4-(6-(2-Chloro-4-fluorophenyl)-5-(methoxycarbonyl)-2-(thiazol-2-yl)-3,6-dihydropyrimidin-4-yl)piperidin-1-yl)sulfonyl)-cyclopentanecarboxylic Acid], for which the EC50 with HBV was 0.089 µM. This compound came in with a half-maximal cytotoxic concentration (CC50) at 6 days in data set [1] of more than 100 µM.

Turning to `COC(=O)C1=C(C2CCN(S(=O)(=O)[C@@H]3CC[C@H](C(=O)O)C3)CC2)NC(c2nccs2)=NC1c1ccc(F)cc1Cl` (relative stereo) [Compound 311B, (cis)-3-((4-(6-(2-Chloro-4-fluorophenyl)-5-(methoxycarbonyl)-2-(thiazol-2-yl)-3,6-dihydropyrimidin-4-yl)piperidin-1-yl)sulfonyl)-cyclopentanecarboxylic Acid], the EC50 in the data set on HBV is 0.097 µM. In data set [1], this compound gave a half-maximal cytotoxic concentration (CC50) at 6 days of more than 100 µM.

Take `COC(=O)C1=C(C2CCN(S(=O)(=O)[C@H]3CC[C@@H](C(=O)O)CC3)CC2)NC(c2nccs2)=NC1c1ccc(F)cc1Cl` (relative stereo) [Compound 313A, (cis)-4-((4-(6-(2-Chloro-4-fluorophenyl)-5-(methoxycarbonyl)-2-(thiazol-2-yl)-3,6-dihydropyrimidin-4-yl)piperidin-1-yl)sulfonyl)-cyclohexanecarboxylic Acid]: the EC50 with HBV was 0.058 µM. This compound had a 50% cytotoxic concentration (CC50) at 6 days in data set [1] of 35 µM.

As to `COC(=O)C1=C(C2CCN(S(=O)(=O)[C@H]3CC[C@H](C(=O)O)CC3)CC2)NC(c2nccs2)=NC1c1ccc(F)cc1Cl` (relative stereo) [Compound 313B, (trans)-4-((4-(6-(2-Chloro-4-fluorophenyl)-5-(methoxycarbonyl)-2-(thiazol-2-yl)-3,6-dihydropyrimidin-4-yl)piperidin-1-yl)sulfonyl)-cyclohexanecarboxylic Acid], in the data set with HBV, the EC50 came to 0.011 µM. In data set [1], the CC50 at 6 days came to 34.6 µM.

For `CCOC(=O)C1=C(C2CCN(S(=O)(=O)[C@H]3C[C@H](C(=O)O)C3)CC2)NC(c2nccs2)=NC1c1cccc(F)c1Br` (relative stereo) [Compound 339B, (trans)-3-((4-(6-(2-Bromo-3-fluorophenyl)-5-(ethoxycarbonyl)-2-(thiazol-2-yl)-3,6-dihydropyrimidin-4-yl)piperidin-1-yl)sulfonyl)cyclobutanecarboxylic Acid], in the data set with HBV, the half-maximal effective concentration (EC50) turned out to be 0.01 µM. In data set [1], the midpoint of cytotoxicity, the CC50 at 6 days, lay at 13.4 µM.

Turning to `CCOC(=O)C1=C(C2CCN(S(=O)(=O)[C@H]3C[C@@H](C(=O)O)C3)CC2)NC(c2nccs2)=NC1c1cccc(F)c1Br` (relative stereo) [Compound 339D, (cis)-3-((4-(6-(2-Bromo-3-fluorophenyl)-5-(ethoxycarbonyl)-2-(thiazol-2-yl)-3,6-dihydropyrimidin-4-yl)piperidin-1-yl)sulfonyl)cyclobutanecarboxylic Acid], the EC50 in the data set with HBV is 0.099 µM. In addition, in data set [1], the half-maximal cytotoxic concentration (CC50) at 6 days was 32.7 µM.

Consider `CCOC(=O)C1=C(C2CCN(S(=O)(=O)[C@H]3C[C@@H](C(=O)O)C3)CC2)NC(c2nccs2)=NC1c1ccc(F)c(F)c1C` (relative stereo) [Compound 343D, (cis)-3-((4-(6-(3,4-difluoro-2-methylphenyl)-5-(ethoxycarbonyl)-2-(thiazol-2-yl)-3,6-dihydropyrimidin-4-yl)piperidin-1-yl)sulfonyl)cyclobutane-carboxylic Acid], for which the half-maximal effective concentration (EC50) in the data set with HBV was found to be 0.053 µM. This compound also had a half-maximal cytotoxic concentration (CC50) at 6 days in data set [1] of 24 µM.

On to `CCOC(=O)C1=C(C2CCN(S(=O)(=O)[C@H]3CC[C@@H](C(=O)O)CC3)CC2)NC(c2nccs2)=NC1c1ccc(F)c(F)c1Cl` (relative stereo) [Compound 354B, (cis)-4-((4-(6-(2-Chloro-3,4-difluorophenyl)-5-(ethoxycarbonyl)-2-(thiazol-2-yl)-3,6-dihydropyrimidin-4-yl)piperidin-1-yl)sulfonyl)cyclohexane-carboxylic Acid], for which the EC50 in the data set on HBV was found to be 0.018 µM. The compound also came in with a 50% cytotoxic concentration (CC50) at 6 days in data set [1] of 7 µM.

Turning to `CCOC(=O)C1=C(C2CCN(S(=O)(=O)[C@H]3CC[C@H](C(=O)O)CC3)CC2)NC(c2nccs2)=NC1c1ccc(F)c(F)c1Cl` (relative stereo) [Compound 354C, (trans)-4-((4-(6-(2-Chloro-3,4-difluorophenyl)-5-(ethoxycarbonyl)-2-(thiazol-2-yl)-3,6-dihydropyrimidin-4-yl)piperidin-1-yl)sulfonyl)cyclohexane-carboxylic Acid], the concentration giving a half-maximal response (EC50) in the data set on HBV amounted to 0.015 µM. Also, the CC50 at 6 days in data set [1] stood at 7.9 µM.

`COC(=O)C1=C(C2CCN(S(=O)(=O)[C@H]3C[C@@H](CO)C3)CC2)NC(c2nccs2)=NC1c1ccc(F)cc1Cl` (relative stereo) [Compound 357B, (cis)-Methyl 4-(2-chloro-4-fluorophenyl)-6-(1-((3-(hydroxymethyl)cyclobutyl)sulfonyl)piperidin-4-yl)-2-(thiazol-2-yl)-1,4-dihydropyrimidine-5-carboxylate]: the EC50 with HBV came out at 0.036 µM. In data set [1], this compound returned a 50% cytotoxic concentration (CC50) at 6 days of 15.4 µM.

In the case of `COC(=O)C1=C(C2CCN(S(=O)(=O)[C@H]3C[C@H](C(=O)O)C3)C2)NC(c2nccs2)=NC1c1ccc(F)cc1Cl` (relative stereo) [Compound 367A, (trans)-3-((3-(6-(2-chloro-4-fluorophenyl)-5-(methoxycarbonyl)-2-(thiazol-2-yl)-3,6-dihydropyrimidin-4-yl)pyrrolidin-1-yl)sulfonyl)cyclobutanecarboxylic Acid], the EC50 with HBV stood at 0.303 µM. Also, the midpoint of cytotoxicity in data set [1], the CC50 at 6 days, lay at 33.4 µM.

Take `COC(=O)C1=C(C2CCN(S(=O)(=O)[C@H]3C[C@@H](C(=O)O)C3)C2)NC(c2nccs2)=NC1c1ccc(F)cc1Cl` (relative stereo) [Compound 367B, (cis)-3-((3-(6-(2-chloro-4-fluorophenyl)-5-(methoxycarbonyl)-2-(thiazol-2-yl)-3,6-dihydropyrimidin-4-yl)pyrrolidin-1-yl)sulfonyl)cyclobutanecarboxylic Acid]: the EC50 with HBV worked out at 0.8 µM. In data set [1], the CC50 at 6 days was more than 100 µM.

For the compound `CCOC(=O)C1=C(C2CCN(S(=O)(=O)[C@H]3C[C@H](C(=O)O)C3)CC2)NC(c2nccs2)=NC1c1ccc(F)c(F)c1Cl` (relative stereo) [Compound 370B, (trans)-3-((4-(6-(2-Chloro-3,4-difluorophenyl)-5-(ethoxycarbonyl)-2-(thiazol-2-yl)-3,6-dihydropyrimidin-4-yl)piperidin-1-yl)sulfonyl)cyclobutanecarboxylic Acid], the concentration for a half-maximal effect (EC50) in the data set on HBV was 0.004 µM. This compound came in with a CC50 at 6 days in data set [1] of 23.2 µM.

Turning to `CCOC(=O)C1=C(C2CCN(S(=O)(=O)[C@H]3C[C@@H](C(=O)O)C3)CC2)NC(c2nccs2)=NC1c1ccc(F)c(F)c1Cl` (relative stereo) [Compound 370D, (cis)-3-((4-(6-(2-Chloro-3,4-difluorophenyl)-5-(ethoxycarbonyl)-2-(thiazol-2-yl)-3,6-dihydropyrimidin-4-yl)piperidin-1-yl)sulfonyl)cyclobutanecarboxylic Acid], the concentration giving a half-maximal response (EC50) with HBV is 0.04 µM. For the same compound, half-maximal cytotoxicity in data set [1] (CC50 at 6 days) was put at 26.3 µM.

`CCOC(=O)C1=C([C@@H]2CCN(S(C)(=O)=O)[C@@H](CF)C2)NC(c2nccs2)=NC1c1ccc(F)cc1Cl` (relative stereo) [Compound 404N, ethyl 4-(2-chloro-4-fluorophenyl)-6-((trans)-2-(fluoromethyl)-1-(methylsulfonyl)piperidin-4-yl)-2-(thiazol-2-yl)-1,4-dihydropyrimidine-5-carboxylate]: the EC50 in the data set with HBV was found to be 0.155 µM. In data set [1], this compound returned a CC50 at 6 days of 17.7 µM.

Regarding `COC(=O)C1=C(C2CCN(S(=O)(=O)[C@H]3C[C@H](C(=O)O)C3)CC2)NC(c2nccs2)=NC1c1cccc(F)c1Br` (relative stereo) [Compound 439B, (trans)-3-((4-(6-(2-Bromo-3-fluorophenyl)-5-(methoxycarbonyl)-2-(thiazol-2-yl)-3,6-dihydropyrimidin-4-yl)piperidin-1-yl)sulfonyl)cyclobutanecarboxylic Acid], the EC50 with HBV came out at 0.066 µM. Further, in data set [1], the 50% cytotoxic concentration (CC50) at 6 days came to 53.8 µM.

What is called EC50 is the concentration at which the effect is half-maximal. As a reminder, the CC50 is the concentration that lowers cell viability or growth by half.
